Measured values reported in paper PMC6943527, “Are the Hydantoin-1,3,5-triazine 5-HT6R Ligands a Hope to a Find New Procognitive and Anti-Obesity Drug? Considerations Based on Primary In Vivo Assays and ADME-Tox Profile In Vitro” (Molecules, 2019).

Columns and labels:
CYP2D6 = biological target: T1, CYP2D6 (Homo sapiens, UniProt P10635); test: CYP2D6 P450-Glo drug-drug interaction assay; assay type: in vitro ADME; conditions: summary in comparison to SUVN-502
T1 construct: purchased Promega (Madison, WI, USA)
Method: The influence of triazine derivatives on two the most involved in drug metabolism CYP (cytochrome P450) isoforms CYP3A4 and CYP2D6 was also investigated.
The study was performed using the CYP3A4 P450-Glo^TM and CYP2D6 P450-Glo^TM commercial tests provided by Promega (Madison, WI, USA). The influence of compounds on CYPs activity was tested in white polystyrene, flat-bottom Nunc^TM MicroWell^TM 96-well microplates (Thermo Scientific, Waltham, MA USA), and the bioluminescence signal was measured with a microplate reader (EnSpire) in luminescence mode, as described previously. KMP-10 and DJ-18 were tested in triplicate in the range of 0.01–25 µM for both isoforms’ P450 cytochrome. KE and QD were used as the reference compounds for CYP3A4 and CYP2D6, respectively.

hepatoma HepG2 cell line = test: Hepatotoxicity assay, HepG2 cell viability; assay type: cell-based; conditions: HepG2, 0.1-100 µM, 72 h
Method: The cell-based assays were used to investigate safety of the 5-HT6R ligands. […] During the same study, no effect for KMP-10 was observed. Additional safety tests with the hepatoma HepG2 cell line were performed here to estimate the compounds’ hepatotoxicity. A slight antiproliferative effect was observed only for DJ-18 at 100 µM, where the cell viability was decreased to up to ~83% of the control (Figure 9a).
Hepatotoxicity was estimated using the hepatoma HepG2 (ATCC® HB-8065^TM) cell line according to previously described protocols. The CellTiter 96® AQueous Non-Radioactive Cell Proliferation Assay was obtained from Promega (Madison, WI, USA). The compounds were investigated in quadruplicate at four concentrations (0.1–100 µM) for 72h. The antiproliferative drug DX was used as a positive control at a dose of 1 µM.

[1] = Novel object recognition (NOR) test; assay type: in vivo, male Wistar rats; conditions: rats
Method: The experiments were performed on male Wistar rats (200–220 g) obtained from an accredited animal facility at the Jagiellonian University Medical College, Poland. The animals were housed in group of four in controlled environment (ambient temperature 21 ± 2 °C; relative humidity 50%–60%; 12-h light/dark cycles (lights on at 8:00). Standard laboratory food (LSM-B) and filtered water were freely available. Animals were randomly assigned to treatment groups. All the experiments were performed by two observers unaware of the studied treatment between 9:00 and 14:00 on separate groups of animals. All animals were used only once. Procedures involving animals and their care were conducted in accordance with current European Community and Polish legislation on animal experimentation. Additionally, all efforts were made to minimize animal suffering and to use only the number of animals necessary to produce reliable scientific data. […]
The animals explored the objects by looking, licking, sniffing or touching the object but not when leaning against, standing or sitting on the object. […] The exploration time of the objects was measured by blind experimenter. Based on exploration time (E) of the two objects during T2, the discrimination index (DI) was calculated according to the formula: DI = (EB − EA)/(EA + EB). […]

D2 = biological target: D2; set-up: method as in PMID 30282913; conditions: radioligand binding, average of at least two independent experiments; read-out: Ki D2 [3H]-Raclopride; cited from earlier work
5-HT7 = biological target: 5-HT7; set-up: method as in PMID 30282913; conditions: radioligand binding, average of at least two independent experiments; read-out: Ki 5-HT7 [3H]-5-CT; cited from earlier work
[2] = set-up: method as in PMID 30282913; conditions: overeating model, vs control group; cited from earlier work
[3] = set-up: method as in PMID 30282913; conditions: cited from earlier work
[4] = Plasma protein binding, TRANSIL XL PPB assay; conditions: human, immobilized HSA and AGP at 24:1 (TRANSIL XL PPB assay)
Method: (§1) The immobilized HSA and AGP used in this study was included in the commercial test TRANSIL^XL PPB (plasma protein binding) assay.
(§2) The study was performed with use of the commercial TRANSIL^XL PPB Assay (Sovicell, Leipzig, Germany). The test was performed according to recommendations from the protocol provided by the manufacturer. […] Next, the plate was centrifugated at 750 g for 10 min. The supernatants were collected and analyzed by LC/MS.
(§3) The total fraction bound was estimated by:(3) fb=1−1/1+[HSA]/KDHSA+[AGP]/KDAGP

[5] = test system: human serum albumin (HSA) and α1-acid glycoprotein (AGP); test: Plasma protein binding, TRANSIL XL PPB assay
Method: as §1, §2, §3

[6] = Metabolic stability and metabolic pathways in human liver microsomes
Method: The pharmacokinetic parameters of compounds were estimated by using human liver microsomes (HLMs) (Sigma-Aldrich, St. Louis, MO, USA). The t1/2 values and intrinsic clearances (CLint) were calculated with IS by using the protocols and formulas proposed by Obach [38]. […] VL was used as the reference unstable drug.

T1 sequence (P10635 whole entry): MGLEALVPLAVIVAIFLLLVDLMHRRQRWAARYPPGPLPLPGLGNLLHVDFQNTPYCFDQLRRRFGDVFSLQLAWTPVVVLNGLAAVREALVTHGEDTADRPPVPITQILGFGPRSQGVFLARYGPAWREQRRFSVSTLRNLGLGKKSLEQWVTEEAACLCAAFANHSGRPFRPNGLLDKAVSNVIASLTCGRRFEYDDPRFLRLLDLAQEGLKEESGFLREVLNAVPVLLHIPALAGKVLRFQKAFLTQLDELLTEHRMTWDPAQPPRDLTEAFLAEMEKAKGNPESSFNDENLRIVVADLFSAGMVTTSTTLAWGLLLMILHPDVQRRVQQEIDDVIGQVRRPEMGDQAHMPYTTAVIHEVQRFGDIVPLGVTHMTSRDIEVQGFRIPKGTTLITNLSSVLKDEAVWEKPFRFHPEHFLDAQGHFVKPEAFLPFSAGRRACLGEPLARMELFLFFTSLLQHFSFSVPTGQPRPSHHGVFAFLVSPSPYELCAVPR

Compound: CN1CCN(c2nc(N)nc(CN3C(=O)NC(C)(c4ccc5ccccc5c4)C3=O)n2)CC1 (centres unmarked) [KMP-10, 3-((4-amino-6-(4-methylpiperazin-1-yl)-1,3,5-triazin-2-yl)methyl)-5-methyl-5-(naphthalen-2-yl)imidazolidine-2,4-dione]
- Influence on CYP2D6 (CYP2D6): almost no influence
- Hepatotoxic character (hepatoma HepG2 cell line): did not show any hepatotoxic character
- Memory deficits induced by scopolamine in NOR test ([1]; full dose-range 0.3–3 mg/kg i.p.): significantly and dose-dependently reversed
- Memory impairment induced by MK-801 in NOR test, discrimination index ([1]; some activity at 1 mg/kg i.p.): did not reach a statistically significant level
- Ki (D2): 4.25 µM
- Ki (5-HT7): 0.514 µM
- Increase of body mass [2]: significantly lower increase
- Antidepressive-like properties in the Porsolt model [3]: antidepressive-like properties
- fraction unbound at 12 min, 5 µM [4]: 0.155
- PPB KD ([5]; immobilized HSA and AGP 24:1, 5 µM compound): 112 µM
- PPB KD, fold higher than warfarin ([5]; vs warfarin): ~ 10 fold
- Metabolic Pathway, metabolite M1 ([6]; HLMs, 120 min incubation): demethylation
- Metabolic Pathway, metabolite M2 ([6]; HLMs, 120 min incubation): hydroxylation
- Metabolic Pathway, metabolite M3 ([6]; HLMs, 120 min incubation): demethylation and hydroxylation
- Metabolic Pathway, metabolite M4 ([6]; HLMs, 120 min incubation): hydroxylation and dehydrogenation
- Intrinsic Clearance CLint ([6]; HLMs, reactions terminated at 5, 15, 30 and 45 min): 3.74 mL/min/kg
- t1/2, fold longer than verapamil ([6]; HLMs, vs unstable reference verapamil): ~ 8 fold
- CLint scaled ([6]; human, liver microsomes): 3.74 mL/min/kg
- half-life ([6]; human, liver microsomes, Half-Life t1/2, HLMs, reactions terminated at 5, 15, 30 and 45 min): 3.98 h
- half-life ([6]; human, liver microsomes, t1/2 in vitro, HLMs, as restated in comparison to SUVN-502): > 3 h
